# Active and inactive are the calls of the source. The rule behind the calls is not given here.
# Assays:
# Plasma [1] = assay: Drug uptake in Plasmodium berghei ANKA infected Swiss black mouse plasma at 20 mg/kg, po via gavage measured after 20 hrs; assay type: ADME, organism-based; conditions: in vivo
# Plasmodium falciparum [2] = assay: Antimalarial activity against Plasmodium falciparum 3D7 infected in human erythrocytes assessed as arrest at trophozoite stage of asexual life cycle leading to parasite death at 10 times EC50 up to 48 hrs by Giemsa-staining based assay relative to control; assay type: functional, cell-based
# Plasmodium falciparum [3] = assay: Antimalarial activity against synchronous culture of Plasmodium falciparum 3D7 ring stage parasite infected in human erythrocytes incubated for 3 hrs followed by compound wash out and measured after 24 hrs by NanoGlo-reagent based bioluminescence assay; assay type: functional, cell-based
# [4] = Aqueous solubility of the compound at pH 2 by nephelometry; assay type: physicochemical
# Plasmodium falciparum [5] = assay: Antimalarial activity against Plasmodium falciparum NF54 harboring pfs16-LUC-GFP early stage 1 to 3 gametocytes after 48 hrs by MitoTracker Red staining based confocal microscopy; assay type: functional; conditions: NF54, 48 h
# Plasmodium falciparum [6] = assay: Antimalarial activity against Plasmodium falciparum 3D7 asexual blood stage infected in human erythrocytes incubated for 72 hrs by LDH assay; assay type: functional, cell-based; conditions: 3D7, 72 h
# [7] = Hepatic extraction ratio in human liver microsomes at 1 uM in presence of NADPH by LC-MS method; assay type: ADME, microsome; conditions: read-out: ERH
# [8] = Half life in human liver microsomes at 1 uM in presence of NADPH by LC-MS method; assay type: ADME, microsome
# Plasmodium falciparum [9] = assay: Antimalarial activity against Plasmodium falciparum NF54 harboring pfs16-LUC-GFP ring stage gametocytes after 24 hrs by MitoTracker Red staining based confocal microscopy; assay type: functional; conditions: NF54, 24 h
# [10] = Ratio of EC50 for Plasmodium falciparum NF54-pfs16-LUC-GFP early stage gametocytes to EC50 for Plasmodium falciparum 3D7 asexual blood stage infected in human erythrocytes; assay type: functional
# Plasmodium berghei [11] = assay: Antimalarial activity against Plasmodium berghei ANKA infected Swiss black mouse at 20 mg/kg, ip administered for 4 days starting 4 hrs post infection by microscopic method; assay type: functional
# Liver [12] = assay: Drug metabolism in human liver microsomes assessed as mono-oxygenation at 6th position of quinazoline at 1 uM after 60 mins in presence of NADPH by LC-MS method; assay type: ADME, microsome; conditions: 1 h
# [13] = Half life in mouse liver microsomes at 1 uM in presence of NADPH by LC-MS method; assay type: ADME, microsome
# Plasmodium falciparum [14] = assay: Antimalarial activity against synchronous culture of Plasmodium falciparum 3D7 ring stage parasite infected in human erythrocytes incubated for 24 hrs followed by compound wash out and measured after 24 hrs by NanoGlo-reagent based bioluminescence assay; assay type: functional, cell-based; conditions: 3D7, 24 h
# Liver [15] = assay: Drug metabolism in human liver microsomes assessed as hydro defluorination at 1 uM after 60 mins in presence of NADPH by LC-MS method; assay type: ADME, microsome; conditions: 1 h
# [16] = Selectivity index, ratio of EC50 for human HepG2 cells to EC50 for Plasmodium falciparum 3D7 asexual blood stage infected in human erythrocytes; assay type: toxicity, cell-based; conditions: read-out: Ratio EC50
# Plasmodium falciparum [17] = assay: Antimalarial activity against Plasmodium falciparum NF54 harboring pfs16-LUC-GFP late stage 4 to 5 gametocytes after 48 hrs by MitoTracker Red staining based confocal microscopy; assay type: functional; conditions: NF54, 48 h
# [18] = Intrinsic clearance in mouse liver microsomes at 1 uM in presence of NADPH by LC-MS method; assay type: ADME, microsome; conditions: read-out: CLH
# [19] = Ratio of EC50 for Plasmodium falciparum NF54-pfs16-LUC-GFP ring stage gametocytes to EC50 for Plasmodium falciparum 3D7 asexual blood stage infected in human erythrocytes; assay type: functional
# Plasmodium berghei [20] = assay: Antimalarial activity against Plasmodium berghei ANKA infected Swiss black mouse model at 20 mg/kg administered via oral gavage for 4 days starting 4 hrs post infection by microscopic method; assay type: functional
# [21] = Aqueous solubility of the compound at pH 6.5 by nephelometry; assay type: physicochemical
# Liver [22] = assay: Drug metabolism in mouse liver microsomes assessed as hydro defluorination at 1 uM after 60 mins in presence of NADPH by LC-MS method; assay type: ADME, microsome; conditions: 1 h
# [23] = Intrinsic clearance in human liver microsomes at 1 uM in presence of NADPH by LC-MS method; assay type: ADME, microsome; conditions: read-out: CLH
# Liver [24] = assay: Drug metabolism in mouse liver microsomes assessed as N-demethylation of methyl piperidine or piperazine at 1 uM after 60 mins in presence of NADPH by LC-MS method; assay type: ADME, microsome; conditions: 1 h
# Plasmodium falciparum [25] = assay: Antimalarial activity against synchronous culture of Plasmodium falciparum 3D7 infected in human erythrocytes assessed as development arrest at ring stage of asexual life cycle leading to parasite death at 10 times EC50 up to 48 hrs by Giemsa-staining based assay relative to control; assay type: functional, cell-based
# Plasma [26] = assay: Drug uptake in Plasmodium berghei ANKA infected Swiss black mouse plasma at 20 mg/kg, ip measured after 20 hrs; assay type: ADME, organism-based; conditions: in vivo
# Plasmodium falciparum [27] = assay: Antimalarial activity against synchronous culture of Plasmodium falciparum 3D7 ring stage parasite infected in human erythrocytes incubated for 6 hrs followed by compound wash out and measured after 24 hrs by NanoGlo-reagent based bioluminescence assay; assay type: functional, cell-based
# Liver [28] = assay: Drug metabolism in human liver microsomes assessed as N-demethylation of methyl piperidine or piperazine at 1 uM after 60 mins in presence of NADPH by LC-MS method; assay type: ADME, microsome; conditions: 1 h
# HepG2 = assay: Cytotoxicity against human HepG2 cells assessed as growth inhibition after 48 hrs by Cell Titer-Glo assay; assay type: cell-based; conditions: HepG2, 48 h
# Plasmodium falciparum [29] = assay: Antimalarial activity against chloroquine and mefloquine resistant Plasmodium falciparum W2mef infected in human erythrocytes incubated for 72 hrs by LDH assay; assay type: functional, cell-based
# [30] = Hepatic extraction ratio in mouse liver microsomes at 1 uM in presence of NADPH by LC-MS method; assay type: ADME, microsome; conditions: read-out: ERH
# Liver [31] = assay: Drug metabolism in mouse liver microsomes assessed as mono-oxygenation at 6th position of quinazoline at 1 uM after 60 mins in presence of NADPH by LC-MS method; assay type: ADME, microsome; conditions: 1 h
smiles,measurement,setting,value
CN1CCN(CCNc2nc(Nc3ccc(F)c(Cl)c3)nc3ccccc23)CC1.Cl.Cl,Drug uptake,Plasma [1],Active
same,Activity,Plasmodium falciparum [2],inactive
same,EC50,Plasmodium falciparum [3],2500 nM
same,solubility kinetic,[4],> 90 µM
same,EC50,Plasmodium falciparum [5],326 nM
same,EC50,Plasmodium falciparum [6],26 nM
same,hepatic extraction ratio at 1 µM,[7],< 0.22
same,half-life at 1 µM,[8],> 255 min
same,EC50,Plasmodium falciparum [9],179 nM
same,Ratio EC50,[10],15 - 25
same,Activity,Plasmodium berghei [11],>98%
same,Drug metabolism,Liver [12],Metabolite_Detected
same,half-life at 1 µM,[13],30 min
same,EC50,Plasmodium falciparum [14],323 nM
same,Drug metabolism,Liver [15],Metabolite_Detected
same,selectivity ratio,[16],240
same,EC50,Plasmodium falciparum [17],3000 nM
same,microsomal CLint at 1 µM,[18],57 µL/min/mg
same,Ratio EC50,[19],10
same,Activity,Plasmodium berghei [20],>90%
same,solubility kinetic,[21],11.3 to 23 µM
same,Drug metabolism,Liver [22],Metabolite_Detected
same,microsomal CLint at 1 µM,[23],< 7 µL/min/mg
same,Drug metabolism,Liver [24],Metabolite_Detected
same,Activity,Plasmodium falciparum [25],Active
same,Drug uptake,Plasma [26],Active
same,Activity,Plasmodium falciparum [27],Dose dependent effect
same,EC50,Plasmodium falciparum [27],2960 nM
same,Drug metabolism,Liver [28],Metabolite_Detected
same,EC50,HepG2,6.1 µM
same,EC50,Plasmodium falciparum [29],49 nM
same,hepatic extraction ratio at 1 µM,[30],0.55
same,Drug metabolism,Liver [31],Metabolite_Detected

# Source: ChEMBL document CHEMBL3997785, “Optimization of 2-Anilino 4-Amino Substituted Quinazolines into Potent Antimalarial Agents with Oral in Vivo Activity” (J Med Chem, 2017)
